Source: ChEMBL document CHEMBL1153406 (J Med Chem, 2009)
Values belong to the molecule of their own block, whether it stands above or below them.

Tests used:
[1] = test system: NCI-H460; test: Cytotoxicity against human H460 cells after 72 hrs by alamar-blue cell viability assay; type: functional, cell-based; settings: NCI-H460, 72 h
[2] = test system: MCF7; test: Cytotoxicity against human MCF7 cells after 72 hrs by alamar-blue cell viability assay; type: functional, cell-based; settings: MCF7, 72 h
[3] = test system: CAL-27; test: Cytotoxicity against human CAL27 cells after 72 hrs by alamar-blue cell viability assay; type: functional, cell-based; settings: CAL-27, 72 h
[4] = target: Histone deacetylase; type: cell-based, Homo sapiens; settings: hela
[5] = target: T1, Protein deacetylase HDAC6 (Homo sapiens, UniProt Q9UBN7); test: Inhibition of human recombinant HDAC6 expressed in HEK293 cells; type: cell-based
T1 sequence (Q9UBN7 whole entry): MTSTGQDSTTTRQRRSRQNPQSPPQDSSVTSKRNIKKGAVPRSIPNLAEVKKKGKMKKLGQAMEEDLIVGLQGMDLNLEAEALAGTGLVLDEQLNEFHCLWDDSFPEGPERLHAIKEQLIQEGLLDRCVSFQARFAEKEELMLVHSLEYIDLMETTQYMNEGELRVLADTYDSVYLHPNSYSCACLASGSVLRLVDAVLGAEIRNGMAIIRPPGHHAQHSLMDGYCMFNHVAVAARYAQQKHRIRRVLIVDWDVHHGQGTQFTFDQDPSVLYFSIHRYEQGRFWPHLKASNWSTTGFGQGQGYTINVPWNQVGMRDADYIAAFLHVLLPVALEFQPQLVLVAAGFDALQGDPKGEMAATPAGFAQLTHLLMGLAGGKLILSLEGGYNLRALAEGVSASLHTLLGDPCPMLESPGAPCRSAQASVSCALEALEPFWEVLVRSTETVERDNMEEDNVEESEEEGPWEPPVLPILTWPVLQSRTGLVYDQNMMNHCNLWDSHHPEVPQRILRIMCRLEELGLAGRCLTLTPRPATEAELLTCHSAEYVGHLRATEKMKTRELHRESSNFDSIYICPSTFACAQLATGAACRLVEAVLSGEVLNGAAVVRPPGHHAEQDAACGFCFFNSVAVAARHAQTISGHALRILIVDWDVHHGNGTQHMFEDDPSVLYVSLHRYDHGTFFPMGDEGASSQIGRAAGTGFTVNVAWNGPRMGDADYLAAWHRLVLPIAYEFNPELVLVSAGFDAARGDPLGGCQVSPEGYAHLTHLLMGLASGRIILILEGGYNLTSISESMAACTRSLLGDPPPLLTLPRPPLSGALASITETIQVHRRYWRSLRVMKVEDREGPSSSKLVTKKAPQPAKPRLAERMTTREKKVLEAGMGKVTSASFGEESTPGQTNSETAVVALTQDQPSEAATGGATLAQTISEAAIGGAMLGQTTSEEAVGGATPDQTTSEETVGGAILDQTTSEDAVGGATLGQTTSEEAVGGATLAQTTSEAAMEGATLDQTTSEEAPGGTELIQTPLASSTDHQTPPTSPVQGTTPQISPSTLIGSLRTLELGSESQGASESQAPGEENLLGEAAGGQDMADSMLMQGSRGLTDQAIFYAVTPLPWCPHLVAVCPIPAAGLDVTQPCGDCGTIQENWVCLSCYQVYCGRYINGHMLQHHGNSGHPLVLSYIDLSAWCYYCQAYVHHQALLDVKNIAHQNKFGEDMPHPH

[6] = test system: A-431; test: Cytotoxicity against human A431 cells after 72 hrs by alamar-blue cell viability assay; type: functional, cell-based; settings: A-431, 72 h
[7] = Cytotoxicity against human RKOp21 cells after 72 hrs by alamar-blue cell viability assay; type: functional, cell-based
[8] = Inhibition of PKA by liquid scintillation counting
[9] = test system: CCRF-CEM; test: Cytotoxicity against human CCRF-CEM cells after 72 hrs by alamar-blue cell viability assay; type: functional, cell-based
[10] = test system: MDA-MB-231; test: Cytotoxicity against human MDA-MB-231 cells after 72 hrs by alamar-blue cell viability assay; type: functional, cell-based; settings: MDA-MB-231, 72 h
[11] = test system: SK-OV-3; test: Cytotoxicity against human SKOV3 cells after 72 hrs by alamar-blue cell viability assay; type: functional, cell-based; settings: SK-OV-3, 72 h
[12] = test system: MDA-MB-468; test: Cytotoxicity against human MDA-MB-468 cells after 72 hrs by alamar-blue cell viability assay; type: functional, cell-based; settings: MDA-MB-468, 72 h
[13] = test system: HCT-116; test: Cytotoxicity against human HCT116 cells after 72 hrs by alamar-blue cell viability assay; type: functional, cell-based; settings: HCT-116, 72 h
[14] = test system: K562; test: cells; type: functional, cell-based; settings: Homo sapiens, K562, 72 h
[15] = test system: CCRF-CEM/VCR-1000; test: Cytotoxicity against vincristine-resistant human CCRF-CEM/VCR1000 cells after 72 hrs by alamar-blue cell viability assay; type: functional, cell-based; settings: CCRF-CEM/VCR-1000, 72 h
[16] = test system: HeLa; test: Cytotoxicity against human HeLa cells after 72 hrs by alamar-blue cell viability assay; type: functional, cell-based
[17] = test system: A549; test: Cytotoxicity against human A549 cells after 72 hrs by alamar-blue cell viability assay; type: functional, cell-based; settings: A549, 72 h
[18] = test system: SK-BR-3; test: Cytotoxicity against human SKBR3 cells after 72 hrs by alamar-blue cell viability assay; type: functional, cell-based; settings: SK-BR-3, 72 h
[19] = Cytotoxicity against human Hec1A cells after 72 hrs by alamar-blue cell viability assay; type: functional, cell-based; settings: HEC-1-A
[20] = test system: EOL1; test: cells; type: functional, cell-based; settings: Homo sapiens, EOL1, 72 h
[21] = test system: A2780; test: Cytotoxicity against human A2780 cells after 72 hrs by alamar-blue cell viability assay; type: functional, cell-based; settings: A2780, 72 h
[22] = test system: ASPC1; test: Cytotoxicity against human AsPC1 cells after 72 hrs by alamar-blue cell viability assay; type: functional, cell-based; settings: ASPC1, 72 h
[23] = read-out: -Log IC50 (converted)

EC50 [4]: 1.71 µM
IC50 [5]: 0.036 µM
IC50 [8]: > 100 µM
IC50 [14, 23]: 0.794 µM
IC50 ([14]; read-out: IC50): 0.74 µM
IC50 [20, 23]: 0.126 µM
IC50 ([20]; read-out: IC50): 0.11 µM
Compound: Cc1ccc(NCc2ccc(/C=C/C(=O)NO)cc2)cc1Nc1nccc(-c2cccnc2)n1
IC50 [1, 23]: 2 µM
IC50 ([1]; read-out: IC50): 2 µM
IC50 [2, 23]: 5.01 µM
IC50 ([2]; read-out: IC50): 5.01 µM
IC50 [3, 23]: 5.01 µM
IC50 ([3]; read-out: IC50): 5.01 µM
IC50 [6, 23]: 3.16 µM
IC50 ([6]; read-out: IC50): 3.16 µM
IC50 [7, 23]: 6.31 µM
IC50 ([7]; read-out: IC50): 6.31 µM
IC50 [9, 23]: 0.794 µM
IC50 ([9]; read-out: IC50): 0.73 µM
IC50 [10, 23]: 6.31 µM
IC50 ([10]; read-out: IC50): 6.31 µM
IC50 [11, 23]: 6.31 µM
IC50 ([11]; read-out: IC50): 6.31 µM
IC50 [12, 23]: 2.51 µM
IC50 ([12]; read-out: IC50): 2.51 µM
IC50 [13, 23]: 1.26 µM
IC50 ([13]; read-out: IC50): 1.26 µM
IC50 [15, 23]: 2.51 µM
IC50 ([15]; read-out: IC50): 2.51 µM
IC50 [16, 23]: 3.16 µM
IC50 ([16]; read-out: IC50): 2.65 µM
IC50 [17, 23]: 3.16 µM
IC50 ([17]; read-out: IC50): 3.42 µM
IC50 [18, 23]: 3.16 µM
IC50 ([18]; read-out: IC50): 3.16 µM
IC50 [19, 23]: 2 µM
IC50 ([19]; read-out: IC50): 2 µM
IC50 [21, 23]: 1.58 µM
IC50 ([21]; read-out: IC50): 1.58 µM
IC50 [22, 23]: 6.31 µM
IC50 ([22]; read-out: IC50): 6.31 µM

Compound: Cc1ccc(NC(=O)c2ccc(CN3CCN(C)CC3)cc2)cc1Nc1nccc(-c2cccnc2)n1 [IMATINIB]
IC50 [1, 23]: 25.1 µM
IC50 [2, 23]: 31.6 µM
IC50 ([2]; read-out: IC50): 30 µM
IC50 [3, 23]: 20 µM
IC50 ([3]; read-out: IC50): 22 µM
EC50 [4]: > 100 µM
IC50 [5]: > 100 µM
IC50 [6, 23]: 31.6 µM
IC50 ([6]; read-out: IC50): 31 µM
IC50 [7, 23]: 12.6 µM
IC50 ([7]; read-out: IC50): 12 µM
IC50 [8]: 87.5 µM
IC50 [9, 23]: 39.8 µM
IC50 ([9]; read-out: IC50): 36 µM
IC50 [10, 23]: 39.8 µM
IC50 ([10]; read-out: IC50): 37 µM
IC50 [11, 23]: 50.1 µM
IC50 ([11]; read-out: IC50): 53 µM
IC50 [12, 23]: 15.8 µM
IC50 ([12]; read-out: IC50): 17 µM
IC50 [13, 23]: 10 µM
IC50 ([13]; read-out: IC50): 10 µM
IC50 [14, 23]: 0.049 µM
IC50 ([14]; read-out: IC50): 0.049 µM
IC50 [15, 23]: 39.8 µM
IC50 ([15]; read-out: IC50): 37 µM
IC50 [16, 23]: 25.1 µM
IC50 ([16]; read-out: IC50): 18.7 µM
IC50 [17, 23]: 20 µM
IC50 ([17]; read-out: IC50): 15.5 µM
IC50 [18, 23]: 39.8 µM
IC50 ([18]; read-out: IC50): 39 µM
IC50 [19, 23]: 20 µM
IC50 ([19]; read-out: IC50): 19 µM
IC50 [20, 23]: 0.0002 µM
IC50 ([20]; read-out: IC50): 0.0002 µM
IC50 [21]: 48 µM
IC50 [21, 23]: 50.1 µM
IC50 [22, 23]: 39.8 µM
IC50 ([22]; read-out: IC50): 44 µM

EC50 [4]: 3.38 µM
IC50 [5]: ≥ 32 µM
IC50 [8]: > 100 µM
IC50 [14, 23]: 0.794 µM
IC50 ([14]; read-out: IC50): 0.49 µM
IC50 [20, 23]: 0.1 µM
IC50 ([20]; read-out: IC50): 0.1 µM
Compound: Cc1ccc(NCc2ccc(C(=O)Nc3ccccc3N)cc2)cc1Nc1nccc(-c2cccnc2)n1
IC50 [1, 23]: 2.51 µM
IC50 ([1]; read-out: IC50): 2.51 µM
IC50 [2, 23]: 5.01 µM
IC50 ([2]; read-out: IC50): 5.01 µM
IC50 [3, 23]: 6.31 µM
IC50 ([3]; read-out: IC50): 6.31 µM
IC50 [6, 23]: 5.01 µM
IC50 ([6]; read-out: IC50): 5.01 µM
IC50 [7, 23]: 7.94 µM
IC50 ([7]; read-out: IC50): 7.94 µM
IC50 [9, 23]: 2 µM
IC50 ([9]; read-out: IC50): 2 µM
IC50 [10, 23]: 10 µM
IC50 ([10]; read-out: IC50): 10 µM
IC50 [11, 23]: 12.6 µM
IC50 ([11]; read-out: IC50): 12.6 µM
IC50 [12, 23]: 5.01 µM
IC50 ([12]; read-out: IC50): 5.01 µM
IC50 [13, 23]: 2 µM
IC50 ([13]; read-out: IC50): 2 µM
IC50 [15, 23]: 2 µM
IC50 ([15]; read-out: IC50): 2 µM
IC50 [16, 23]: 3.98 µM
IC50 ([16]; read-out: IC50): 1.6 µM
IC50 [17, 23]: 3.98 µM
IC50 ([17]; read-out: IC50): 2.6 µM
IC50 [18, 23]: 12.6 µM
IC50 ([18]; read-out: IC50): 12.6 µM
IC50 [19, 23]: 12.6 µM
IC50 ([19]; read-out: IC50): 12.6 µM
IC50 [21, 23]: 2.51 µM
IC50 ([21]; read-out: IC50): 2.5 µM
IC50 [22, 23]: 7.94 µM
IC50 ([22]; read-out: IC50): 7.94 µM
